Source: patent publication US20250326767A1, “NOVEL BENZOTHIAZOLE DERIVATIVES” (CARNA BIOSCIENCES, INC., priority 2021, published 2025)

Assays:
Assay in all cases: Inhibition test on activity of DYRK family, mobility shift assay (MSA)
Assay type in all cases: biochemical
DYRK2 = target: T1, DYRK2 (Homo sapiens, UniProt Q92630); details: ATP 40 μM; FITC-labeled DYRKtide peptide substrate; room temperature 1 hour; read-out: Inhibitory Activity DYRK2 (IC50 class)
T1 construct: purchased Carna Biosciences, Inc. 04-132
T1 sequence (Q92630 1-601): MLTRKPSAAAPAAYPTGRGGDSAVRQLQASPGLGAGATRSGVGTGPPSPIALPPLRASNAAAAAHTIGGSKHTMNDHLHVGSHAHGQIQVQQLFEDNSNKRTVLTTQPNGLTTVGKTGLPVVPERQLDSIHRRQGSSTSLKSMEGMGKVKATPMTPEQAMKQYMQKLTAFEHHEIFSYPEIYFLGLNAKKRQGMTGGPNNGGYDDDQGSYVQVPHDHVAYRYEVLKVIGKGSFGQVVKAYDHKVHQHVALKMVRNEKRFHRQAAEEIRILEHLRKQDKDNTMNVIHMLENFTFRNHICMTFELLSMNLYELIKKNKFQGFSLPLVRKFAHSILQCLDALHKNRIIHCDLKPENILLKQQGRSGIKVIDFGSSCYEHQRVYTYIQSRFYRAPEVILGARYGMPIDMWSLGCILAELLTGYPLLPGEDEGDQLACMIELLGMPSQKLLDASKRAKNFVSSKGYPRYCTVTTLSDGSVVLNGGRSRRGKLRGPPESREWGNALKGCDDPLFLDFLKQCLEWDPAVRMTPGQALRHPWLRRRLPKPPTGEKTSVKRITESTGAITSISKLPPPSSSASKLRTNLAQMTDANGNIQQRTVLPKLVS
Experimental: (§1) The kinase activity was measured by mobility shift assay (MSA) method using QuickScout Screening Assist™ MSA (commercially available kit manufactured by Carna Biosciences, Inc.). The substrate of the kinase reaction used was an FITC-labeled DYRKtide peptide included in the kit. An assay buffer [20 mM HEPES, 0.01% Triton X-100™, 2 mM dithiothreitol, pH 7.5] was used to create a substrate mixture solution with a substrate (4 μM), MgCl2 (20 mM), and ATP (DYRK1A: 100 μM; DYRKIB: 200 μM; DYRK2:40 μM; and DYRK3:20 μM). In addition, kinases (DYRK1A: manufactured by Carna Biosciences, Inc., Cat. No. 04-130; DYRK1B: manufactured by Carna Biosciences, Inc., Cat. No. 04-131; DYRK2; manufactured by Carna Biosciences, Inc., Cat. No. 04-132; and DYRK3; manufactured by Carna Biosciences, Inc., Cat. No. 04-133) were diluted with the assay buffer to prepare enzyme solutions (DYRK1A: 0.2 ng/μL; DYRK1B: 0.08 ng/μL; DYRK2: 0.04 ng/μL; and DYRK3:0.25 ng/μL). The 10 mM solution of the test compound in DMSO was further diluted with DMSO to 10 levels of the concentration (0.00003 mM, 0.0001 mM, 0.0003 mM, 0.001 mM, 0.003 mM, 0.01 mM, 0.03 mM, 0.1 mM, 0.3 mM, and 1 mM), each of which was subjected to 25-fold dilution with the assay buffer to obtain a drug solution (4% DMSO solution). 5 μL of the drug solution or a control solution (4% DMSO-assay buffer), 5 μL of the substrate mixture solution, and 10 μL of the enzyme solution were mixed in the wells of a polypropylene 384-well plate and allowed to react at room temperature for 1 hour, and then the reaction was quenched by adding 60 μL of the termination buffer included in the kit. Subsequently, the quantities of the substrates(S) and the phosphorylated substrate (P) in the reaction solution were measured using LabChip EZ Reader II system (manufactured by Caliper Life Sciences) according to the protocol of the assay kit.
(§2) The heights of the peaks of the “substrate” and the “phosphorylated substrate” were expressed as S and P, respectively, and a blank containing the assay buffer instead of the enzyme solution was also measured.
(§3) The inhibition rate (%) of the test compound was calculated according to the following equation: […]
(§4) wherein, A, B, and C represent P/(P+S) of the blank well, P/(P+S) of the control solution well, and P/(P+S) of the compound-containing well, respectively.
(§5) The IC50 value was calculated via a regression analysis of the inhibition rate and the test compound concentration (logarithmic value).

DYRK3 = target: T2, DYRK3 (Homo sapiens, UniProt O43781); details: ATP 20 μM; FITC-labeled DYRKtide peptide substrate; room temperature 1 hour; read-out: Inhibitory Activity DYRK3 (IC50 class)
T2 construct: purchased Carna Biosciences, Inc. 04-133
T2 sequence (O43781 1-588): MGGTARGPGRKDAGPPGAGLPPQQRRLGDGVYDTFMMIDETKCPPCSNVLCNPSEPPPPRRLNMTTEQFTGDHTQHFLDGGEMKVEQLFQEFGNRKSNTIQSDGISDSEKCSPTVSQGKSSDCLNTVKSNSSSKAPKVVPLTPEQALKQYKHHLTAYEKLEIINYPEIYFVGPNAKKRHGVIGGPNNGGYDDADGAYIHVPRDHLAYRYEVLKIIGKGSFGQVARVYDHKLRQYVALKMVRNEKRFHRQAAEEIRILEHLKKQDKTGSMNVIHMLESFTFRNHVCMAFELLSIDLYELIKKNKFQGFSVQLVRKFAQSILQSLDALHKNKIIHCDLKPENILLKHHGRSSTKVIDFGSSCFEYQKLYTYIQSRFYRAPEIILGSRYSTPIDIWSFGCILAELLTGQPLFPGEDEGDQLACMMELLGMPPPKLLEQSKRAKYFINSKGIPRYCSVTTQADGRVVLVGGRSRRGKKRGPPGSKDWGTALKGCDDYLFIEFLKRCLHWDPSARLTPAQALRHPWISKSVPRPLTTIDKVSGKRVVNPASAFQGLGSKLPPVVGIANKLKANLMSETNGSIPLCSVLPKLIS
Experimental: as §1, §2, §3, §4, §5

DYRK1A = target: T3, DYRK1A (Homo sapiens, UniProt Q13627); details: ATP 100 μM; FITC-labeled DYRKtide peptide substrate; room temperature 1 hour; read-out: Inhibitory Activity DYRK1A (IC50 class)
T3 construct: purchased Carna Biosciences, Inc. 04-130
Experimental: as §1, §2, §3, §4, §5

DYRK1B = target: T4, DYRK1B (Homo sapiens, UniProt Q9Y463); details: ATP 200 μM; FITC-labeled DYRKtide peptide substrate; room temperature 1 hour; read-out: Inhibitory Activity DYRK1B (IC50 class)
T4 construct: purchased Carna Biosciences, Inc. 04-131
Experimental: as §1, §2, §3, §4, §5

T4 sequence (Q9Y463 whole entry): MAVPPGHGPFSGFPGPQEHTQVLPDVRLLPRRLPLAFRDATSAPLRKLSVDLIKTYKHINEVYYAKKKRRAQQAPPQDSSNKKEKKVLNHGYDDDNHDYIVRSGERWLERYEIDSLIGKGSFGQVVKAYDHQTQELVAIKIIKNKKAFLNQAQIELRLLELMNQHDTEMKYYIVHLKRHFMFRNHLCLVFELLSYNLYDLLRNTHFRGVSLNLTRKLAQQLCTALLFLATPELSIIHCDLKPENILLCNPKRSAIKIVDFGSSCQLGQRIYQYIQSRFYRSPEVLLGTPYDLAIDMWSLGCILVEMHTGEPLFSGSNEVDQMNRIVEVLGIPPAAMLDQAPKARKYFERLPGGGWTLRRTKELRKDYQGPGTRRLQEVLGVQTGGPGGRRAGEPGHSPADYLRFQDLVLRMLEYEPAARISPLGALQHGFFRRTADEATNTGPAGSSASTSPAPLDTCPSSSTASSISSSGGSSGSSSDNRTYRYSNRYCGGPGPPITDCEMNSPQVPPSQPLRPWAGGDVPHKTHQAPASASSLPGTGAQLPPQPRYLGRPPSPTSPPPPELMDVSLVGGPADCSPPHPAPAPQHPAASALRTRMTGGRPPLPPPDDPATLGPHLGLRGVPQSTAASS

SMILES	IC50 (DYRK2)	IC50 (DYRK3)	IC50 (DYRK1A)	IC50 (DYRK1B)
CC#CC1CCNC(=O)N1c1nc2c3c(ccc2s1)OCCO3 (racemic) [Example 1, (RS)-1-(7,8-dihydro-[1,4]dioxino[2′,3′:5,6]benzo[1,2-d]thiazol-2-yl)-6-(prop-1-yn-1-yl)tetrahydropyrimidin-2(1H)-one]	> 1000 nM	> 1000 nM	< 10 nM	–
CC#CC1CCNC(=O)N1c1nc2c3c(ccc2s1)OCC3 (racemic) [Example 3, (RS)-3-(7,8-dihydrobenzofuro[4,5-d]thiazol-2-yl)-4-(prop-1-yn-1-yl)-tetrahydropyrimidin-2(1H)-one]	100 to 1000 nM	100 to 1000 nM	< 10 nM	–
CC#CC1N(c2nc3c4c(ccc3s2)OCCO4)C(=O)NC12CC2 (racemic) [Example 4, (RS)-6-(7,8-dihydro-[1,4]dioxyno[2′,3′:5,6]benzo[1,2-d]thiazol-2-yl)-7-(prop-1-yn-1-yl)-4,6-diazaspiro[2.4]heptan-5-one]	100 to 1000 nM	100 to 1000 nM	–	–
CC#CC1CCNC(=O)N1c1nc2c3c(ccc2s1)OCCO3 (single isomer, unassigned) [Example 6, 1-(7,8-dihydro-[1,4]dioxyno[2′,3′:5,6]benzo[1,2-d]thiazol-2-yl)-6-(prop-1-yn-1-yl)tetrahydropyrimidin-2(1H)-one]	> 1000 nM	> 1000 nM	100 to 1000 nM	–
CC#C[C@@H]1[C@H](C)CNC(=O)N1c1nc2c3c(ccc2s1)OCC3 (stereo in doubt) [Example 10, (5R*,6S*)-1-(7,8-dihydrobenzofuro[4,5-d]thiazol-2-yl)-5-methyl-6-(prop-1-yn-1-yl)tetrahydropyrimidin-2(1H)-one]	> 1000 nM	> 1000 nM	–	–
CC#C[C@@H]1[C@@H](C)CNC(=O)N1c1nc2c3c(ccc2s1)OCC3 (stereo in doubt) [Example 11, (5S*, 6S*)-1-(7,8-dihydrobenzofuro[4,5-d]thiazol-2-yl)-5-methyl-6-(prop-1-yn-1-yl)tetrahydropyrimidin-2(1H)-one]	> 1000 nM	> 1000 nM	–	–
CC#C[C@H]1[C@@H](C)CNC(=O)N1c1nc2c3c(ccc2s1)OCC3 (stereo in doubt) [Example 12, (5S*,6R*)-1-(7,8-dihydrobenzofuro[4,5-d]thiazol-2-yl)-5-methyl-6-(prop-1-yn-1-yl)tetrahydropyrimidin-2(1H)-one]	> 1000 nM	> 1000 nM	–	100 to 1000 nM

More lines, now with the values ahead:

IC50 (DYRK2)	IC50 (DYRK3)	IC50 (DYRK1A)	IC50 (DYRK1B)	SMILES
100 to 1000 nM	100 to 1000 nM	< 10 nM	–	CC#CC1N(c2nc3c4c(ccc3s2)OCC4)C(=O)NC12CC2 (racemic) [Example 2, (RS)-6-(7,8-dihydrobenzofuro[4,5-d]thiazol-2-yl)-7-(prop-1-yn-1-yl)-4,6-diazaspiro[2.4]heptan-5-one]
> 1000 nM	100 to 1000 nM	10 to 100 nM	–	CC#CC1N(c2nc3c4c(ccc3s2)OCC4)C(=O)NC12COC2 (racemic) [Example 9, (RS)-7-(7,8-dihydro-benzofuro[4,5-d]thiazol-2-yl)-8-(prop-1-yn-1-yl)-2-oxa-5,7-diazaspiro[3.4]octan-6-one]
100 to 1000 nM	100 to 1000 nM	–	< 10 nM	CC#CC1N(c2nc3c4c(ccc3s2)OCCO4)C(=O)NC12CC2 (single isomer, unassigned) [Example 7, 6-(7,8-dihydro-[1,4]dioxyno[2′,3′:5,6]benzo[1,2-d]thiazol-2-yl)-7-(prop-1-yn-1-yl)-4,6-diazaspiro[2.4]heptan-5-one]
> 1000 nM	> 1000 nM	–	–	CC#CC1N(c2nc3c4c(ccc3s2)OCCO4)C(=O)NC12CC2 (single isomer, unassigned) [Example 8, 6-(7,8-dihydro-[1,4]dioxyno[2′,3′:5,6]benzo[1,2-d]thiazol-2-yl)-7-(prop-1-yn-1-yl)-4,6-diazaspiro[2.4]heptan-5-one]
100 to 1000 nM	10 to 100 nM	< 10 nM	–	CC#CC1N(c2nc3c4c(ccc3s2)OCC4)C(=O)NC12CC2 (single isomer, unassigned) [Example 18, 6-(7,8-dihydrobenzofuro[4,5-d]thiazol-2-yl)-7-(prop-1-yn-1-yl)-4,6-diazaspiro[2.4]heptan-5-one]
> 1000 nM	> 1000 nM	> 1000 nM	–	CC#CC1N(c2nc3c4c(ccc3s2)OCC4)C(=O)NC12CC2 (single isomer, unassigned) [Example 19, 6-(7,8-dihydrobenzofuro[4,5-d]thiazol-2-yl)-7-(prop-1-yn-1-yl)-4,6-diazaspiro[2.4]heptan-5-one]
> 1000 nM	100 to 1000 nM	< 10 nM	–	CC#CC1N(c2nc3c4c(ccc3s2)OCC4)C(=O)NC12CCC2 (single isomer, unassigned) [Example 20, 7-(7,8-dihydrobenzofuro[4,5-d]thiazol-2-yl)-8-(prop-1-yn-1-yl)-5,7-diazaspiro[3.4]octan-6-one]
> 1000 nM	> 1000 nM	100 to 1000 nM	–	CC#CC1N(c2nc3c4c(ccc3s2)OCC4)C(=O)NC12CCC2 (single isomer, unassigned) [Example 21, 7-(7,8-dihydrobenzofuro[4,5-d]thiazol-2-yl)-8-(prop-1-yn-1-yl)-5,7-diazaspiro[3.4]octan-6-one]
> 1000 nM	100 to 1000 nM	–	–	CC#CC1N(c2nc3c4c(ccc3s2)OCC4)C(=O)NC12CCCC2 (single isomer, unassigned) [Example 22, 3-(7,8-dihydrobenzofuro[4,5-d]thiazol-2-yl)-4-(prop-1-yn-1-yl)-1,3-diazaspiro[4.4]nonan-2-one]
> 1000 nM	> 1000 nM	–	–	CC#CC1N(c2nc3c4c(ccc3s2)OCC4)C(=O)NC12CCCC2 (single isomer, unassigned) [Example 23, 3-(7,8-dihydrobenzofuro[4,5-d]thiazol-2-yl)-4-(prop-1-yn-1-yl)-1,3-diazaspiro[4.4]nonan-2-one]
